Measured values published in PubChem BioAssay AID488888 (Sanford-Burnham Center for Chemical Genomics, 2010).
The source made the active and inactive calls.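 The calls were made as follows: active = mean EC50, the dose giving half of full activation, below a set limit (actives reach about 84 µM in these data); inactive = the rest.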

Target: Alkaline phosphatase, placental type (Homo sapiens) (UniProt P05187)
Test: PLAP enzyme activators, dose response, selectivity assay for human IAP activator project, biochemical, uHTS hits, luminescence (AID 488888)
Conditions: purified PLAP, CDP-Star luminescence, 30 min

Chain of Alkaline phosphatase, placental type (Homo sapiens) (P05187 whole entry, looked up): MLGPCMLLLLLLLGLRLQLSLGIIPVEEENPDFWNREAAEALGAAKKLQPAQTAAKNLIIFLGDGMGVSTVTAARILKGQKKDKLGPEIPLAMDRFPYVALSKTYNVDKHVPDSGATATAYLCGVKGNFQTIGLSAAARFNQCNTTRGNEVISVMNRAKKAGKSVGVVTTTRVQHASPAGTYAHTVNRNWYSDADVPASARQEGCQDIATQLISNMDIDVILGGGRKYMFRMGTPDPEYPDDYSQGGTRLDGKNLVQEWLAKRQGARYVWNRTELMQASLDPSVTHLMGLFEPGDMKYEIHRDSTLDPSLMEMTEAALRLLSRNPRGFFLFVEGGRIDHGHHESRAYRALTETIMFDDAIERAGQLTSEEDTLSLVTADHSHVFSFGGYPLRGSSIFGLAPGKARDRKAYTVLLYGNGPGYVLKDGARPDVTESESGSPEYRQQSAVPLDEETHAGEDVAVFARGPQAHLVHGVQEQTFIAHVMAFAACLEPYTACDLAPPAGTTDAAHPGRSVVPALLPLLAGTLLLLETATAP

Compound | EC50
COc1ccccc1N(C)S(=O)(=O)c1ccc(Cl)c(C(=O)NNC(=O)c2ccccc2O)c1 | 19.5 µM
O=C(NNC(=S)NC1CCCCC1)c1ccccc1Br | 16.4 µM
CCOc1cc(/C=N/NC(=O)C(=O)N/N=C/c2ccc(O)c(OCC)c2)ccc1O | 70 µM
COc1cc(OC)cc(C(=O)NNC(=O)c2nn(C)c(=O)c3ccccc23)c1 | 13.9 µM
COc1ccc(CN2CCC(n3nccc3NC(=O)CCCc3ccccc3)CC2)cc1C | 71.6 µM
Cc1nc2c3ccccc3nc(NNC(=O)CCC(=O)NCCC(C)C)n2n1 | 13.9 µM
O=C(N/N=C/c1c(O)ccc2ccccc12)c1[nH]ncc1Br | 11 µM
Cn1c(/C(C#N)=C(\O)c2ccc(Br)s2)nc2ccccc21 | 62.2 µM
Cc1[nH]n(-c2nc(-c3ccccc3)cc(=O)[nH]2)c(=O)c1CCO | 30.8 µM
O=C1Nc2ccc(Br)cc2C12NNc1ccccc1O2 (stereo not given) | 0.55 µM
CCOc1ccc(/C=N/NC(=O)c2[nH]ncc2Br)c(O)c1 | 11.2 µM
O=c1oc(-c2ccc(O)c(O)c2)cc2cc(O)cc(O)c12 | > 100 µM (inactive)
O=C(N/N=C/c1ccc(O)cc1O)C(=O)N/N=C/c1ccc(O)cc1O | 5.73 µM
CC(C)(C)NC(=O)C(=O)NNC(=O)COc1ccccc1 | 35.9 µM
CC(C)C(=O)NC(=S)Nc1ccccc1C(=O)Nc1ccccc1 | 9.82 µM
O=C(NC(=S)NNC(=O)c1ccccc1O)c1ccc(F)cc1 | 13.6 µM
Cc1ccc(-c2cc(C(=O)N/N=C/c3ccccc3O)n[nH]2)o1 | 8.04 µM
COc1cc(NC(=O)NCC2CCN(Cc3ccccc3Cl)CC2)cc(OC)c1OC | 64.2 µM
CN(Cc1ccccc1)C(=O)c1[nH]cnc1C(=O)Nc1nccs1 | 17.8 µM
CN(CC(=O)Nc1ccccc1F)CC(=O)Nc1ccc(F)c(F)c1F | 28.4 µM
CC(C)Oc1ccc(C(=O)Nc2ncn[nH]2)cc1 | 24.1 µM
O=C(/C=C/c1cccs1)NC(=S)NNC(=O)c1ccccc1O | 12.7 µM
O=C(CCN1C(=O)/C(=C/c2ccccc2Cl)SC1=S)NNC(=O)c1ccccc1O | 25.3 µM
O=C(NN1C(=O)CSC1=S)C(=O)NN1C(=O)CSC1=S | 14.5 µM
CCOCCCNC(=O)CCC(=O)NNc1nc2ccccc2c2nc(-c3ccccc3)nn12 | 19.1 µM

Compound | EC50
COc1cccc(/C=N\NC(=O)C2=NNC(=O)C2C)c1O (stereo not given) | 7.82 µM
CC(C)Oc1ccc(CCC(=O)NNC(=S)NCc2ccccc2)cc1 | 21.2 µM
COc1ccc(OC)c(NC(=O)c2cc(-c3cc(C)ccc3O)n[nH]2)c1 | 23.1 µM
Cc1cc(Br)ccc1SCC(=O)OC/C(O)=C(\C#N)c1nc2ccccc2[nH]1 | 25.5 µM
Cc1cccc(NS(=O)(=O)c2cccc(C(=O)NNC(=O)c3ccccc3O)c2)c1 | 42.3 µM
O=Nc1[nH]c(=O)c(/C=C(\O)c2ccccc2)nc1NO | 9.75 µM
COc1ccc(O)c(/C=N/NC(=S)NCCc2ccccc2)c1 | 19.1 µM
CC(C)n1cc(CN2CCC(C(=O)Nc3cccc(-c4cccc(Cl)c4)c3)CC2)cn1 | 78.1 µM
O=C(N/N=C/c1c(F)cccc1Cl)c1cc(C2CC2)[nH]n1 | 66.8 µM
CCCOCC(O)CC(CC)C(=O)NNC(=S)Nc1ccccc1 (stereo not given) | 16.7 µM
Cc1c(C(=O)N/N=C/c2c(O)ccc3ccccc23)nnn1-c1nonc1N | 16.4 µM
CC(C)(C)OC(=O)N1CCC(NC(=O)c2[nH]cnc2C(=O)Nc2ccon2)CC1 | 15.2 µM
O=C(NNC(=S)NC(=O)c1ccccc1)c1cccnc1 | 18.7 µM
Cc1cc(=O)[nH]c(-n2[nH]c3c(c2=O)CCCC3)n1 | 13.6 µM
COc1ccccc1C1=NN(C2=NN=C(N)Cc3ncnn32)C(O)(C(F)(F)F)C1 (stereo not given) | 12.3 µM
NC(CO)C(=O)NNCc1ccc(O)c(O)c1O (stereo not given) | 11.5 µM
O=C(Nc1ccon1)c1nc[nH]c1C(=O)NCc1ccccc1 | 15.5 µM
Cc1nc(Nc2nc3c(c(=O)[nH]2)CCC3)nc2ccccc12 | 18.7 µM
O=C(NNC(=S)NCc1ccco1)c1ccccc1Br | 13.7 µM
Cc1cccc(-n2ncc3c(NNC(=O)c4ccco4)ncnc32)c1 | 9.19 µM
COc1cc(NC(=O)NCC2CCN(Cc3ccccc3C)CC2)cc(OC)c1OC | 78.9 µM
Cc1nc2c3ccccc3nc(NNC(=O)CCC(=O)NCCN3CCN(c4ccccc4)CC3)n2n1 | 15.3 µM
Cc1cccc(OCC(=O)NNC(=O)c2ccc3nc[nH]c3c2)c1 | 15.6 µM
Cc1ccccc1CN1CCC(n2nccc2NC(=O)CCCc2ccccc2)CC1 | 75.2 µM
CCOc1cccc(-c2nc(C(N)=O)c3[nH]c(=O)n(-c4cccc(Cl)c4)c3n2)c1O | 1.91 µM
